The target of test [1] is T1, Signal recognition particle receptor subunit alpha (Homo sapiens, UniProt P08240).
T1 sequence (P08240 whole entry): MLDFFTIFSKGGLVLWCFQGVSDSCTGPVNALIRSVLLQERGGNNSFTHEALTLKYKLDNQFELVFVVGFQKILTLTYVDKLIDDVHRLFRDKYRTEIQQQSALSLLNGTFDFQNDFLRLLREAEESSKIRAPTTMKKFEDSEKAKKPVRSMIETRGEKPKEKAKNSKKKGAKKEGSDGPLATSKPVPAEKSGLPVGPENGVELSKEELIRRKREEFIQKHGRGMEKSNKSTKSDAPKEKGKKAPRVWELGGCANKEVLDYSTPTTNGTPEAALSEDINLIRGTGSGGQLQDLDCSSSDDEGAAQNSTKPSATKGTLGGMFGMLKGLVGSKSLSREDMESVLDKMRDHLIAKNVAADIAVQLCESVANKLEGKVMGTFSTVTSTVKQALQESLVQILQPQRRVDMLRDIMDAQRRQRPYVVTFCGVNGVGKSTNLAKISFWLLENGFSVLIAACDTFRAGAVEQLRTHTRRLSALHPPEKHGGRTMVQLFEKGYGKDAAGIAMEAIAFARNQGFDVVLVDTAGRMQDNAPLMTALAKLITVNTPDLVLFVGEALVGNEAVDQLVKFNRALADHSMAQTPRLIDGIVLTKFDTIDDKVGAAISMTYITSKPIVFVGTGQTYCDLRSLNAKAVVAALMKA

Test [2] addresses T2, Ribosyldihydronicotinamide dehydrogenase [quinone] (Homo sapiens, UniProt P16083).
T2 sequence (P16083 whole entry): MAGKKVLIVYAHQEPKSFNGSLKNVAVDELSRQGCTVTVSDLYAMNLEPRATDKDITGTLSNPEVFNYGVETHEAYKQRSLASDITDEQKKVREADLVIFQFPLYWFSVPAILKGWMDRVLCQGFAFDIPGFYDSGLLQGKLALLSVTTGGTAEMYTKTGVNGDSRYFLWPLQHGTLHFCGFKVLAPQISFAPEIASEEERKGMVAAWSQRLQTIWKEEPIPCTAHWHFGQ

Test [3] deals with Elongation factor Tu, mitochondrial (Homo sapiens, UniProt P49411).
For another test, the target named is Deoxycytidine kinase (Homo sapiens, UniProt P27707).
Chain of Deoxycytidine kinase (P27707 whole entry): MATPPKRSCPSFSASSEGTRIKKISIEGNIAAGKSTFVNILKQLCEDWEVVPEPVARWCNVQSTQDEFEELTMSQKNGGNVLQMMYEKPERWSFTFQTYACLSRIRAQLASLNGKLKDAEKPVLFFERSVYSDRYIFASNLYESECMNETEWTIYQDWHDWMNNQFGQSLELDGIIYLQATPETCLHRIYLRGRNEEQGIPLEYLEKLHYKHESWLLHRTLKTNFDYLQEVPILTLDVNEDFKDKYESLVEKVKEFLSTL
The target of test [4] is T3, NUAK family SNF1-like kinase 2 (Homo sapiens, UniProt Q9H093).
T3 sequence (Q9H093 whole entry): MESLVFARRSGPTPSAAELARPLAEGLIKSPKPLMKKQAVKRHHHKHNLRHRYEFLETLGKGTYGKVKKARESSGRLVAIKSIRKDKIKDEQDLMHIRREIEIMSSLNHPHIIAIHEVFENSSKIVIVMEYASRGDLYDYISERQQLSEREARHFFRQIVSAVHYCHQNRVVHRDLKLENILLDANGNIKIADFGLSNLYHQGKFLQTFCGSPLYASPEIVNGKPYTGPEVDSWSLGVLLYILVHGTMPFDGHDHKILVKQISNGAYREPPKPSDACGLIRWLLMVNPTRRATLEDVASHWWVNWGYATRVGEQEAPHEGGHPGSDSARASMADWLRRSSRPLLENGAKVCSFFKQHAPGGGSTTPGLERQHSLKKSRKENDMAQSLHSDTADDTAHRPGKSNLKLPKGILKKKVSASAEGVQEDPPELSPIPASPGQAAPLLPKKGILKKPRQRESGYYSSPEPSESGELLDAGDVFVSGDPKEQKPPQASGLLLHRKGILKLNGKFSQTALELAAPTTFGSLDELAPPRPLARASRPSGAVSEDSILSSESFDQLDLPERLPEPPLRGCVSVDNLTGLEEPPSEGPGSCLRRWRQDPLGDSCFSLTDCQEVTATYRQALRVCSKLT

The target of test [5] is Rho-associated protein kinase 2 (Homo sapiens, UniProt O75116).
Chain of Rho-associated protein kinase 2 (O75116 whole entry): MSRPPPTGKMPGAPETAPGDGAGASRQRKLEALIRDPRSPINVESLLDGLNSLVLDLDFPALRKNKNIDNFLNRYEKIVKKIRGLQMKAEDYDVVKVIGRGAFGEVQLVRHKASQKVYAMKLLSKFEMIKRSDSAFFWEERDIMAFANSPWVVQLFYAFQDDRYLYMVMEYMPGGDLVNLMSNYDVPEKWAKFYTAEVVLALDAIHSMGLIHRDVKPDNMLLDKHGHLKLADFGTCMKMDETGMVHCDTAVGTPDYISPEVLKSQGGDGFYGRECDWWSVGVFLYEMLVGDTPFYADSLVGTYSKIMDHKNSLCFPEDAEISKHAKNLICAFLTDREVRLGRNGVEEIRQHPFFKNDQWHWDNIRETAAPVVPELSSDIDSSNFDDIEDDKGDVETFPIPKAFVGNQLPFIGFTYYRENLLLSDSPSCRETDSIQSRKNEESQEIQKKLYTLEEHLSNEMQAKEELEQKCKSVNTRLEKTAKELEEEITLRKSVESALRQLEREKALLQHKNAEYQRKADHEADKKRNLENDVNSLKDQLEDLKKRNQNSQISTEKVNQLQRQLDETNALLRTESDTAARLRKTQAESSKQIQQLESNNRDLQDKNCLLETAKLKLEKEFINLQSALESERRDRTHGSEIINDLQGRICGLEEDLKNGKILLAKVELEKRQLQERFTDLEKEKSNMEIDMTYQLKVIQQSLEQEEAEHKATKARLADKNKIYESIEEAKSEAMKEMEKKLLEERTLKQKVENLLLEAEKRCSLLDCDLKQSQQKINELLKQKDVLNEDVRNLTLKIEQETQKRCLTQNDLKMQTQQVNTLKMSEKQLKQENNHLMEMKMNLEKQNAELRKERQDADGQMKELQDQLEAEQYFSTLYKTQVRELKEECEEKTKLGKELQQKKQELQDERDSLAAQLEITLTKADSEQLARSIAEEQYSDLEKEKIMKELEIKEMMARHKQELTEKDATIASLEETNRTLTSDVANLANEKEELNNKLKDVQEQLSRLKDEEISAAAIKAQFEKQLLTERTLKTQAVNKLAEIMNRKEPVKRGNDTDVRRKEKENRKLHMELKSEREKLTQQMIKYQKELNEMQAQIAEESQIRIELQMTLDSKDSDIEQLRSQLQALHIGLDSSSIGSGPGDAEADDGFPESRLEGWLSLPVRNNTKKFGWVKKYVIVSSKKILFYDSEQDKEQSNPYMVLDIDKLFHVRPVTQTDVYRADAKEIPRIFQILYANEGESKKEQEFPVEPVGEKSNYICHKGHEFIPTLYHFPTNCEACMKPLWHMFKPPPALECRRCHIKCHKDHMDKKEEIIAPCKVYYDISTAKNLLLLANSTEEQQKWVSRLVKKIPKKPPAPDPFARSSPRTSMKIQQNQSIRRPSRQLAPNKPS
Test [6] has as its target T4, Serine/threonine-protein kinase PLK4 (Homo sapiens, UniProt O00444).
T4 sequence (O00444 whole entry): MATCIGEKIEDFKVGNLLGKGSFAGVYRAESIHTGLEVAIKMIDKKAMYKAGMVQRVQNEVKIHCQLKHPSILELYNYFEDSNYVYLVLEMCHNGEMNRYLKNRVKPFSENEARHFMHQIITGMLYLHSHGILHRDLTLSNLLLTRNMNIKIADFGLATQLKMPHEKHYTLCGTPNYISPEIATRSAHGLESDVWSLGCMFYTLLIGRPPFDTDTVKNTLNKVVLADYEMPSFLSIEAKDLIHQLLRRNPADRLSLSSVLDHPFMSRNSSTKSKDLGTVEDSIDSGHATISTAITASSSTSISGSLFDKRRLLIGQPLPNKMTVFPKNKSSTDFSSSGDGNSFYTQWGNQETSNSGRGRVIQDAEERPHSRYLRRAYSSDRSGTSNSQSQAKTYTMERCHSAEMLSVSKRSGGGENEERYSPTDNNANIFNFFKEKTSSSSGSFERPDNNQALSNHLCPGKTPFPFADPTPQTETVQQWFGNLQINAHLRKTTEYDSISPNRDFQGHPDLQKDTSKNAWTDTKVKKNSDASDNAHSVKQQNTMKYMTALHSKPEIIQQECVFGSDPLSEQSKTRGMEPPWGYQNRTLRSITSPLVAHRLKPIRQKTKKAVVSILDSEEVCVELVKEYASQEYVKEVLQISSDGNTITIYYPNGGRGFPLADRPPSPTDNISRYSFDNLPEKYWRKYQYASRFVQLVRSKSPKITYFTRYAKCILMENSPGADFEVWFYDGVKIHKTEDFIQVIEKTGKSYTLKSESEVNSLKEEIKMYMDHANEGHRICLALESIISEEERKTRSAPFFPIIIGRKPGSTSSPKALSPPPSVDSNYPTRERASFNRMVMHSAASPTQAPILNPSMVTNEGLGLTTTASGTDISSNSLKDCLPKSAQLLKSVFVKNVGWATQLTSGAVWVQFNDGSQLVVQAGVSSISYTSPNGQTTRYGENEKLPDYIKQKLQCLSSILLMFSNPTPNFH

The source made the active and inactive calls.
Also: in the data inactive means no Kd found up to 30 µM.

As to `COc1cc2nccc(Oc3ccc(NC(=O)Nc4cc(C)on4)c(Cl)c3)c2cc1OC` [TIVOZANIB], the Kd (in test [1]; in test [2]; in test [3]; at Deoxycytidine kinase; in test [4]; in test [5]) was > 30 µM (inactive) each time. Also, in test [6], the Kd is > 30 µM (inactive).

Regarding `COc1cc(N2CCC(N3CCN(C)CC3)CC2)ccc1Nc1ncnc(Nc2ccccc2S(=O)(=O)C(C)C)n1` [ASP-3026], the Kd is > 30 µM (inactive) in test [1]; 6.36 µM (active) in test [2]; > 30 µM (inactive) in test [3]; > 30 µM (inactive) at Deoxycytidine kinase; > 30 µM (inactive) in test [4]; > 30 µM (inactive) in test [5]. Further, the Kd in test [6] was 0.07 µM (active).

As for `CN1CCC(CNc2ccc3ncc(-c4cccc(OC(F)(F)F)c4)n3n2)CC1` [SGI-1776], the Kd (in test [1]; in test [2]; in test [3]; at Deoxycytidine kinase; in test [4]; in test [5]) was > 30 µM (inactive) each time. For the same compound, the Kd in test [6] was > 30 µM (inactive).

For `CC(=O)Nc1cccc(-n2c(=O)n(C3CC3)c(=O)c3c(Nc4ccc(I)cc4F)n(C)c(=O)c(C)c32)c1` [TRAMETINIB], the Kd (in test [1]; in test [2]; in test [3]; at Deoxycytidine kinase; in test [4]; in test [5]) was > 30 µM (inactive) each time. Moreover, in test [6], the Kd was > 30 µM (inactive).

Take `CCc1cnn2c(NCc3ccc[n+]([O-])c3)cc(N3CCCC[C@H]3CCO)nc12` [DINACICLIB]: the Kd (in test [1]; in test [2]; in test [3]; at Deoxycytidine kinase; in test [4]; in test [5]) was > 30 µM (inactive) in each case. The Kd in test [6] is > 30 µM (inactive).

As for `COCCNCc1ccc(-c2cc3nccc(Oc4ccc(NC(=S)NC(=O)Cc5ccc(F)cc5)cc4F)c3s2)nc1` [GLESATINIB], the Kd (in test [1]; in test [2]; in test [3]; on Deoxycytidine kinase; in test [4]; in test [5]) was > 30 µM (inactive) in each case. In addition, the Kd in test [6] was 1.42 µM (active).

Take `Cn1cc(-c2ccc3nnc(C(F)(F)c4ccc5ncccc5c4)n3n2)cn1` [JNJ-38877605]: the Kd is > 30 µM (inactive) in test [1]; 0.323 µM (active) in test [2]; > 30 µM (inactive) in test [3]; > 30 µM (inactive) on Deoxycytidine kinase; > 30 µM (inactive) in test [4]; > 30 µM (inactive) in test [5]. In test [6], the Kd is > 30 µM (inactive).

Regarding `Cc1cc([C@@H](C)Nc2ccccc2C(=O)O)c2nc(N3CCOCC3)cc(=O)n2c1` [AZD-6482], the Kd (in test [1]; in test [2]; in test [3]; at Deoxycytidine kinase; in test [4]; in test [5]) was > 30 µM (inactive) throughout. The Kd in test [6] was > 30 µM (inactive).

Take `COc1cc(CCc2cc(NC(=O)c3ccc(N4C[C@@H](C)N[C@@H](C)C4)cc3)n[nH]2)cc(OC)c1` [AZD-4547]: the Kd (in test [1]; in test [2]; in test [3]; on Deoxycytidine kinase; in test [4]; in test [5]) was > 30 µM (inactive) throughout. In test [6], the Kd is > 30 µM (inactive).

Turning to `CNC(=O)c1ccc(-c2cnc3ncc(Cc4ccc5ncccc5c4)n3n2)cc1F` [CAPMATINIB], the Kd (in test [1]; in test [2]; in test [3]; on Deoxycytidine kinase; in test [4]; in test [5]) was > 30 µM (inactive) in each case. For the same compound, the Kd in test [6] was > 30 µM (inactive).

In the case of `CN1CC[C@@H](c2c(O)cc(O)c3c(=O)cc(-c4ccccc4Cl)oc23)[C@@H]1CO`, the Kd (in test [1]; in test [2]; in test [3]; at Deoxycytidine kinase; in test [4]; in test [5]) was > 30 µM (inactive) throughout. The Kd in test [6] was > 30 µM (inactive).

Take `N[C@@H]1CCCN(c2c(/C=C3\SC(=O)NC3=O)cccc2-c2ccccc2)C1`: the Kd (in test [1]; in test [2]; in test [3]; on Deoxycytidine kinase; in test [4]; in test [5]) was > 30 µM (inactive) throughout. Besides, in test [6], the Kd is > 30 µM (inactive).

Take `CCN1CCN(Cc2ccc(-c3cc4c(N[C@H](C)c5ccccc5)ncnc4[nH]3)cc2)CC1` [AEE-788]: the Kd (in test [1]; in test [2]; in test [3]; on Deoxycytidine kinase; in test [4]; in test [5]) was > 30 µM (inactive) throughout. In addition, in test [6], the Kd is > 30 µM (inactive).

For `C[C@@H]1CN(Cc2ccc(F)cc2)[C@@H](C)CN1C(=O)c1cc2c(C(=O)C(=O)N(C)C)cn(C)c2cc1Cl` [TALMAPIMOD], the Kd in test [1] is > 30 µM (inactive); in test [2] it was 9.92 µM (active); in test [3] it was > 30 µM (inactive); on Deoxycytidine kinase it was > 30 µM (inactive); in test [4], > 30 µM (inactive); in test [5] it was > 30 µM (inactive). Also, in test [6], the Kd is > 30 µM (inactive).

As for `O=C(Nc1ccc(-c2ccnc(Nc3ccc(N4CCOCC4)cc3)n2)cc1)C1CCCN1` (stereo not given) [XL-019], the Kd was > 30 µM (inactive) in test [1]; > 30 µM (inactive) in test [2]; > 30 µM (inactive) in test [3]; > 30 µM (inactive) at Deoxycytidine kinase; > 30 µM (inactive) in test [4]; 3.97 µM (active) in test [5]. Besides, the dissociation constant Kd in test [6] was 0.908 µM (active).

Broadly, the Kd is the constant that tells how readily two partners part at equilibrium.

Source of the values: ChEMBL document CHEMBL3991601, “The target landscape of clinical kinase drugs” (Science, 2017).
